Experiment [1] concerns the target T1, dopamine autoreceptor (D2) (Rattus norvegicus, UniProt P61169).
T1 construct: homogenized rat striatal brain tissue; from tissue; host or cells: rat striatum, homogenate
As to the kind of experiment: 3H-quinpirole (D2 Quin.) binding, homogenized rat striatal brain tissue, affinity for dopamine autoreceptor. The method, then:
Affinity for the dopamine autoreceptor was established by a modification of the standard experimental test procedure of Seemen and Schaus, European Journal of Pharmacology 203, 105-109, 1991, wherein homogenized rat striatal brain tissue is incubated with ^3 H-quinpirole (Quin.) and various concentrations of test compound, filtered and washed and counted in a Betaplate scintillation counter.

Experiment [2] addresses T2, dopamine D-2 receptor (Rattus norvegicus, UniProt P61169).
T2 construct: from tissue; host or cells: limbic brain tissue, homogenate
The experiment in a line: 3H-spiroperidol (D2 Spiper.) binding, homogenized limbic brain tissue. The method, then:
High affinity for the dopamine D-2 receptor was established by the standard experimental test procedure of Fields, et al., Brain Res., 136, 578 (1977) and Yamamura et al., eds., Neurotransmitter Receptor Binding, Raven Press, N.Y. (1978) wherein homogenized limbic brain tissue is incubated with ^3 H-spiroperidol (Spiper.) and various concentrations of test compound, filtered and washed and shaken with Hydrofluor scintillation cocktail (National Diagnostics) and counted in a Packard 460 CD scintillation counter.

Experiment [3] concerns dopamine D2 receptor. The experiment in a line: Intrinsic activity at the dopamine D2 receptor, ratio LowAg/HighAg. The note with it: D2 Spiper IC50 / D2 Quin. IC50 (LowAg/HighAg). Format: binding. The source says: Efforts to induce antipsychotic activity with dopamine autoreceptor agonists have been successful (Dorsini et al., Adv. Biochem. […] et al., Science, 200, 567-568, 1975; and […] et al., Psychiatry, 398-402, 1986). […] Pharm., 42, 432-438, (1993)]. Intrinsic activity is predicted using the ratio of the "low-affinity agonist" (LowAg) state of the receptor and the "high-affinity agonist" ([…]) state of the receptor, […]. These ratios correlate with the agonist, partial agonist, and antagonist activities of a given compound, which activities characterize a compounds ability to elicit an antipsychotic effect. […] Activation of the dopamine autoreceptors results in reduced neuronal firing a well as inhibition of dopamine synthesis and release and therefore provide a means of controlling hyperactivity of the dopaminergic systems. The compounds of this invention were also found to have high intrinsic activity and therefore they can behave as the natural neurotransmitter i.e. as full agonists. […] Affinity for the dopamine autoreceptor was established by a modification of the standard experimental test procedure of Seemen and Schaus, European Journal of Pharmacology 203, 105-109, 1991, wherein homogenized rat striatal brain tissue is incubated with ^3 H-quinpirole (Quin.) and various concentrations of test compound, filtered and washed and counted in a Betaplate scintillation counter. […]

As usually defined, the IC50 is the concentration that gives 50% inhibition.

T1 sequence (P61169 whole entry): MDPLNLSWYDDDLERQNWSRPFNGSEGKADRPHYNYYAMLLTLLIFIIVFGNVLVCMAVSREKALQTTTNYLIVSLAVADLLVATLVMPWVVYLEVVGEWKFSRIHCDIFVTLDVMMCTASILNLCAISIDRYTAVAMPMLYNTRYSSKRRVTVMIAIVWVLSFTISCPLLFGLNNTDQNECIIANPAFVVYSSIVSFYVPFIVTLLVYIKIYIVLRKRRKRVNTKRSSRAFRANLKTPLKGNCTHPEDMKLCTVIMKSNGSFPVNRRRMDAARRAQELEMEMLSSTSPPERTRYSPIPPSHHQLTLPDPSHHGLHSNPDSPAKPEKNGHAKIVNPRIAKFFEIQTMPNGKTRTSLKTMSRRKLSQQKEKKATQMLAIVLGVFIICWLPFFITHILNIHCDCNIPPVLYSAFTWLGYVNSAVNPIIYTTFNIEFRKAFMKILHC
T2 sequence (P61169 whole entry): as above

For the compound `c1ccc(CNCCOc2cccc3[nH]ncc23)cc1` [Example 1, Benzyl-[2-(1H-indazo-4-yloxy)-ethyl]-amine], the IC50 was found to be 2.23 nM in experiment [1] and 333 nM in experiment [2]. For the same compound, in experiment [3], the Ratio stood at 151.

Turning to `c1csc(CNCCOc2cccc3[nH]ncc23)c1` [Example 2, [2-(1H-Indazol-4-yloxy)-ethyl]-thiophen-2-ylmethyl-amine], the IC50 in experiment [1] is 4.3 nM; in experiment [2] it was 1090 nM. Moreover, the Ratio in experiment [3] is 254.

For `c1cc(OCCNCc2ccsc2)c2cn[nH]c2c1` [Example 3, [2-(1H-Indazol-4-yloxy)-ethyl]-thiophen-3-ylmethyl-amine], in experiment [1], the IC50 was 2.78 nM.

These data come from US5872144A, “4-aminoethoxyindazole derivatives” (American Home Products Corporation, priority 1998, dated 1999).
